Counter-ions that a name gives are not always drawn.
Assays:
rat FAAH = biological target: T1, rat FAAH (Rattus norvegicus, UniProt P97612); assay: Assay Method 2: FAAH assay, 3H-anandamide hydrolysis in homogenate of SK-N-MC cells transfected with rat FAAH; assay type: biochemical; settings: average of results, > = solubility limit or highest concentration tested
T1 sequence (P97612 1-579): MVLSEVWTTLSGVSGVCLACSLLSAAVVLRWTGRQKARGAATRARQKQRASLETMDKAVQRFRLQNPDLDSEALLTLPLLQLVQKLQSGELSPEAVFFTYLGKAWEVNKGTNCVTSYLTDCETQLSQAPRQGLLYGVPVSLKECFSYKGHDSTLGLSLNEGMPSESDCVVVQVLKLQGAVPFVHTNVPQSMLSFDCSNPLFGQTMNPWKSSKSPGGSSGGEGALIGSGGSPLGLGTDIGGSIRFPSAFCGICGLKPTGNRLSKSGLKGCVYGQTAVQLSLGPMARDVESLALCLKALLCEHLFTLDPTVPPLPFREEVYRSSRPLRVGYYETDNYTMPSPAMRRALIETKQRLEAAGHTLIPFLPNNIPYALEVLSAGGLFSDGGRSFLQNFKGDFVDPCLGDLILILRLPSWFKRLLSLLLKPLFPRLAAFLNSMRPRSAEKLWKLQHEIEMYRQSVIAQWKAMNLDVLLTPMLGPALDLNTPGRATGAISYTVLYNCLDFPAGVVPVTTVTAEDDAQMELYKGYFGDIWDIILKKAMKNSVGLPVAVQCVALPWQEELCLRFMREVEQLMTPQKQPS
Procedure, shortened: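 Homogenate of SK-N-MC cells stably transfected with rat FAAH cDNA (G418-selected clones) in pH 9 Tris/EDTA/glycerol/Triton buffer. Incubated with compound and 80 nM final [3H]-anandamide for 1 h at rt. Released [3H]-ethanolamine separated from substrate on activated charcoal filters and counted by scintillation.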

FAAH = biological target: T2, FAAH (Homo sapiens, UniProt O00519); assay: Assay Method 1: FAAH assay, 3H-anandamide hydrolysis in homogenate of T84 cells or SK-N-MC cells transfected with human FAAH; assay type: biochemical; settings: average of results, > = solubility limit or highest concentration tested
T2 sequence (O00519 1-579): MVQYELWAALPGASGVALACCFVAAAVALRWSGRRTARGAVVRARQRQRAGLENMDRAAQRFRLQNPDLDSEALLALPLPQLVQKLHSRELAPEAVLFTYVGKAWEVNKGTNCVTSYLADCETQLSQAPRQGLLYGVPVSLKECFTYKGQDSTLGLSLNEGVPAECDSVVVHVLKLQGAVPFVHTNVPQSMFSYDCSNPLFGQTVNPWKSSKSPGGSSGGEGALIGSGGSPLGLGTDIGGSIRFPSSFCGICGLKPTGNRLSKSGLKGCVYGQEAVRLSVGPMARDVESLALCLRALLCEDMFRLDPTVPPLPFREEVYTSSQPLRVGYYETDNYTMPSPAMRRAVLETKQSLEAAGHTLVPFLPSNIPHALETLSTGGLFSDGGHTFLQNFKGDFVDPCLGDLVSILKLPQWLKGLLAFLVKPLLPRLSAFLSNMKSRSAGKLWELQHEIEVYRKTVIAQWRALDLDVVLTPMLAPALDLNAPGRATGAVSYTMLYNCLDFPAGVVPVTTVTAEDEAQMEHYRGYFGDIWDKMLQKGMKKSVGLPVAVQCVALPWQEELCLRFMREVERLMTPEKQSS
Procedure, shortened: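 Homogenates of T84 cells or of SK-N-MC cells stably transfected with human FAAH (G418-selected) were prepared in pH 9 Tris/EDTA/glycerol/Triton buffer. They were incubated with compound and 80 nM final ^3H-anandamide for 1 h at rt. Released ^3H-ethanolamine was separated on activated charcoal and counted by scintillation.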

Structure (SMILES) | IC50 (rat FAAH) | IC50 (FAAH)
O=C(Nc1noc2ccccc12)N1CCN(Cc2cccc(C#CC3CC3)c2)CC1 [Example 76, N-1,2-Benzisoxazol-3-yl-4-[3-(cyclopropylethynyl)benzyl]-piperazine-1-carboxamide] | 400 nM | 10 nM
O=C(Nc1cnccn1)N1CCN(Cc2cccc(C#Cc3ccccc3Cl)c2)CC1 [Example 78, 4-{3-[(2-Chlorophenyl)ethynyl]benzyl}-N-pyrazin-2-ylpiperazine-1-carboxamide hydrochloride salt] | 410 nM | 59 nM
O=C(Nc1cccnn1)N1CCN(Cc2cccc(C#Cc3ccccc3Cl)c2)CC1 [Example 79, 4-{3-[(2-Chlorophenyl)ethynyl]benzyl}-N-pyridazin-3-ylpiperazine-1-carboxamide] | 320 nM | 46 nM
Cc1cnc(NC(=O)N2CCN(Cc3cccc(C#Cc4ccccc4Cl)c3)CC2)cn1 [Example 80, 4-{3-[(2-Chlorophenyl)ethynyl]benzyl}-N-(5-methylpyrazin-2-yl)piperazine-1-carboxamide] | 4000 nM | 5000 nM
O=C(Nc1noc2ccccc12)N1CCN(Cc2cccc(C#Cc3cc(Cl)cc(Cl)c3)c2)CC1 [Example 83, N-1,2-Benzisoxazol-3-yl-4-{3-[(3,5-dichlorophenyl)ethynyl]benzyl}-piperazine-1-carboxamide] | 20 nM | 35 nM
O=C(Nc1noc2ccccc12)N1CCN(Cc2cccc(C#Cc3ccc4c(c3)OCO4)c2)CC1 [Example 89, N-1,2-Benzisoxazol-3-yl-4-[3-(1,3-benzodioxol-5-ylethynyl)benzyl]-piperazine-1-carboxamide] | 544 nM | 645 nM
Cc1ccccc1CCc1cccc(CN2CCN(C(=O)Nc3noc4ccccc34)CC2)c1 [Example 94, 4-[3-(2-o-Tolyl-ethyl)-benzyl]-piperazine-1-carboxylic acid benzo[d]isoxazol-3-ylamide hydrochloride salt] | 630 nM | 380 nM
O=C(Nc1noc2ccccc12)N1CCN(Cc2cccc(Oc3ccccn3)c2)CC1 [Example 96, N-1,2-Benzisoxazol-3-yl-4-[3-(pyridin-2-yloxy)benzyl]piperazine-1-carboxamide] | 1100 nM | 200 nM
O=C(Nc1noc2ccccc12)N1CCN(Cc2cccc(Oc3cnccn3)c2)CC1 [Example 97, N-1,2-Benzisoxazol-3-yl-4-[3-(pyrazin-2-yloxy)benzyl]piperazine-1-carboxamide] | 5000 nM | 270 nM
O=C(Nc1noc2ccccc12)N1CCN(Cc2ccc3nc[nH]c3c2)CC1 [Example 100, 4-(1H-Benzimidazol-6-ylmethyl)-N-1,2-benzisoxazol-3-ylpiperazine-1-carboxamide] | > 10000 nM | > 10000 nM
CS(=O)(=O)c1ccc(CN2CCN(C(=O)Nc3noc4ccccc34)CC2)cc1 [Example 102, N-1,2-Benzisoxazol-3-yl-4-[4-(methylsulfonyl)benzyl]piperazine-1-carboxamide] | > 10000 nM | > 10000 nM
COc1ccc(NC(=O)N2CCN(Cc3cccc(Oc4ccc(Cl)cc4)c3)CC2)nn1 [Example 104, 4-[3-(4-Chlorophenoxy)benzyl]-N-(6-methoxypyridazin-3-yl)piperazine-1-carboxamide] | 690 nM | 37 nM

The remaining lines, values ahead:

IC50 (rat FAAH) | IC50 (FAAH) | Structure (SMILES)
64 nM | 12 nM | O=C(Nc1noc2ccccc12)N1CCN(Cc2cccc(C#Cc3ccsc3)c2)CC1 [Example 77, N-1,2-Benzisoxazol-3-yl-4-[3-(thiophen-3-ylethynyl)benzyl]-piperazine-1-carboxamide]
238 nM | 453 nM | O=C(Nc1noc2ccccc12)N1CCN(Cc2cccc(C#Cc3ccc(Cl)cc3Cl)c2)CC1 [Example 81, N-1,2-Benzisoxazol-3-yl-4-{3-[(2,4-dichlorophenyl)-ethynyl]benzyl}-piperazine-1-carboxamide]
256 nM | 272 nM | O=C(Nc1noc2ccccc12)N1CCN(Cc2cccc(C#Cc3ccccc3OC(F)(F)F)c2)CC1 [Example 82, N-1,2-Benzisoxazol-3-yl-4-(3-{[2-(trifluoromethoxy)phenyl]-ethynyl}benzyl)-piperazine-1-carboxamide]
295 nM | 16 nM | O=C(Nc1noc2ccccc12)N1CCN(Cc2cccc(C#Cc3cc(Cl)ccc3Cl)c2)CC1 [Example 84, N-1,2-Benzisoxazol-3-yl-4-{3-[(2,5-dichlorophenyl)ethynyl]benzyl}-piperazine-1-carboxamide]
23 nM | 18 nM | N#Cc1ccccc1C#Cc1cccc(CN2CCN(C(=O)Nc3noc4ccccc34)CC2)c1 [Example 85, N-1,2-Benzisoxazol-3-yl-4-{3-[(2-cyanophenyl)ethynyl]benzyl}-piperazine-1-carboxamide]
580 nM | 3000 nM | O=C(Nc1noc2ccccc12)N1CCN(Cc2cccc(C#Cc3cccc4ccccc34)c2)CC1 [Example 86, N-1,2-Benzisoxazol-3-yl-4-[3-(naphthalen-1-ylethynyl)benzyl]piperazine-1-carboxamide]
480 nM | 2000 nM | COC(=O)c1ccccc1C#Cc1cccc(CN2CCN(C(=O)Nc3noc4ccccc34)CC2)c1 [Example 87, Methyl 2-[(3-{[4-(1,2-benzisoxazol-3-ylcarbamoyl)piperazin-1-yl]methyl}phenyl)ethynyl]benzoate]
65 nM | 15 nM | N#Cc1cccc(C#Cc2cccc(CN3CCN(C(=O)Nc4noc5ccccc45)CC3)c2)c1 [Example 88, N-1,2-Benzisoxazol-3-yl-4-{3-[(3-cyanophenyl)ethynyl]benzyl}piperazine-1-carboxamide]
815 nM | 195 nM | O=C(Nc1noc2ccccc12)N1CCN(Cc2cccc(C#Cc3cccc(Cl)c3Cl)c2)CC1 [Example 90, N-1,2-Benzisoxazol-3-yl-4-{3-[(2,3-dichlorophenyl)ethynyl]benzyl}-piperazine-1-carboxamide]
21 nM | 30 nM | N#Cc1c(F)cccc1C#Cc1cccc(CN2CCN(C(=O)Nc3noc4ccccc34)CC2)c1 [Example 91, N-1,2-Benzisoxazol-3-yl-4-{3-[(2-cyano-3-fluorophenyl)ethynyl]-benzyl}piperazine-1-carboxamide]
262 nM | 27 nM | N#CCc1ccccc1C#Cc1cccc(CN2CCN(C(=O)Nc3noc4ccccc34)CC2)c1 [Example 92, N-1,2-Benzisoxazol-3-yl-4-(3-{[2-(cyanomethyl)phenyl]ethynyl}-benzyl)piperazine-1-carboxamide]
225 nM | 102 nM | COC(=O)Cc1ccccc1C#Cc1cccc(CN2CCN(C(=O)Nc3noc4ccccc34)CC2)c1 [Example 93, Methyl {2-[(3-{[4-(1,2-benzisoxazol-3-ylcarbamoyl)piperazin-1-yl]methyl}phenyl)ethynyl]phenyl}acetate]
300 nM | 22 nM | N#Cc1ccccc1COc1cccc(CN2CCN(C(=O)Nc3noc4ccccc34)CC2)c1 [Example 98, 4-[3-(2-Cyano-benzyloxy)-benzyl]-piperazine-1-carboxylic acid benzo[d]isoxazol-3-ylamide]
260 nM | 16 nM | O=C(Nc1noc2ccccc12)N1CCN(Cc2cccc(OCc3ccccc3)c2)CC1 [Example 99, N-1,2-Benzisoxazol-3-yl-4-[3-(benzyloxy)benzyl]piperazine-1-carboxamide]
110 nM | 120 nM | O=C(Nc1noc2ccccc12)N1CCN(Cc2ccc(OC(F)(F)F)cc2)CC1 [Example 103, N-1,2-Benzisoxazol-3-yl-4-[4-(trifluoromethoxy)benzyl]piperazine-1-carboxamide]
13 nM | 100 nM | O=C(Nc1noc2ccccc12)N1CCN(Cc2ccc(Cl)c(OC(F)(F)F)c2)CC1 [Example 105, N-1,2-Benzisoxazol-3-yl-4-[4-chloro-3-(trifluoromethoxy)benzyl]-piperazine-1-carboxamide]
